Assay results from patent publication US20230365988A1, “MOUSE MODEL FOR BIO-IMAGING OF INFLAMMATORY SIGNALS, PREPARATION METHOD THEREFOR AND USE THEREOF” (KOREA MOUSE PHENOTYPING CENTER, priority 2020, published 2023).
“Also recorded” adds a separate entry of the source.

Key:
NF-κB [1] = assay: Western blotting of luciferase expression in LPS-treated bone marrow-derived macrophages; assay type: cell-based, mouse; conditions: LPS 10 ng/ml and 100 ng/ml, 6 hours
Description: (§1) Macrophages, mononuclear cells, derived from the bone marrow of the mouse model established in Example <2-1> were differentiated, luciferase activity was confirmed, and NF-κ activity and luciferase protein expression were confirmed by Western blotting. In addition, 20 uM BAY 11-7082 (NF-kB inhibitor) was treated simultaneously with LPS in the same manner as above to evaluate the luciferase activity.
For Western blotting, the detached cells were diluted in RPMI 1640 culture medium, and then distributed in a 6 well plate at the density of 70,000 cells/well, followed by culture. After 24 hours of culture, the experimental group was treated with LPS at the concentrations of 10 ng/ml and 100 ng/ml for 6 hours. The culture medium was removed and homogenized with a buffer containing 20 mM Tris-HCl (pH 7.4), 1% Triton X-100, 15 mM NaCl and protease inhibition cocktail, and centrifuged at 4° C., 13,000 g for 20 minutes. Then, SDS-PAGE (sodium dodecyl sulfate-polyacrylamide gel electrophoresis) was performed using the supernatant to separate proteins. The separated proteins were transferred to a PVDF membrane and blocked with TBST buffer (Tris-Buffered Saline, 0.1% TWEEN 20) containing 5% skim milk powder. […]

NF-κB [2] = assay: Luciferase activity in LPS-treated bone marrow-derived macrophages of the myeloid-specific NF-κB reporter mouse; assay type: cell-based; conditions: 6 hours
Description: as §1
Particularly, the mouse was euthanized with CO2, the femur and tibia were obtained, and the bone marrow cavity was exposed. Then, RPMI 1640 culture medium (10% FBS, 1% penicillin, stretptomycin) containing M-CSF was passed through using a 1 ml syringe, and the contents were collected to make 6 ml of the culture medium. Thereafter, the contents were transferred to a Petri dish and cultured for 3 days at 37° C. under 5% CO2 conditions, and then the medium was replaced with fresh RPMI 1640 culture medium. After 3 days, the culture medium was removed from the Petri dish and washed with PBS (phosphate buffered saline). […] After 6 hours, the culture medium was removed, and 100 μl of HBSS (Hanks' Balanced Salt solution) containing D-luciferin was added to each well of the plate, and then the luciferase activity was evaluated.

NF-κB [3] = assay: PMA-induced ear edema model, luciferase imaging; assay type: in vivo; conditions: 2 μg PMA on left ear twice at a 24 hour interval, measured 24 hours later, Lyz2-Cre reporter mouse
Description: To confirm imaging of inflammatory signals in the mouse model established in Example <2-1>, ear edema was induced by treatment with PMA (phorbol 12-myristate 13-acetate), an inflammatory factor.
Particularly, the left ear of the mouse was treated with 2 μg/40 ? of PMA diluted in ethanol using a micropipette, and the right ear was treated with the same amount of ethanol (40 ? ). After 24 hours, the left ear was treated with 2 μg of PMA, and the right ear was treated with the same amount of ethanol (40 ? ). After another 24 hours, 100 ? of D-luciferin (15 mg/ml in PBS) was intraperitoneally administered using a 1 ml syringe, and luciferase signals were measured in the ears of the mouse under respiratory anesthesia with isoflurane.

NF-κB [4] = assay: DSS-induced colitis model, luciferase imaging; assay type: in vivo; conditions: 3% DSS as drinking water, days 3 and 5, Lyz2-Cre reporter mouse
Description: Colitis was induced by DSS (dextran sulfate sodium salt) in the mouse model established in Example <2-1>, and it was confirmed whether bio-imaging of inflammatory signals over time was possible.
Particularly, 6 g of DSS was added to sterilized tertiary distilled water and stirred for 60 minutes to prepare a 3% DSS aqueous solution. […] After the measurement, the 3% DSS aqueous solution was supplied as drinking water to the mice. While maintaining DSS supply, 100 ? of D-luciferin (15 mg/ ? in PBS) was intraperitoneally administered using a 1 ? syringe on the days after 3 and 5 days after the start of DSS supply, and luciferase signals were measured in the abdomen.

lipopolysaccharide [LPS]
luciferase expression by Western blotting (NF-κB [1]): luciferase expression was increased | luciferase signal activity (NF-κB [2]; LPS 10 ng/ml and 100 ng/ml): increased by LPS dose-dependently

Cc1ccc(S(=O)(=O)/C=C/C#N)cc1 [BAY 11-7082]
LPS-increased luciferase signal activity (NF-kB activity) after inhibitor treatment (NF-κB [2]; 20 uM BAY 11-7082 simultaneously with LPS (10 and 100 ng/ml)): inhibited; also recorded: suppressed

CCCCCCCCCCCCCC(=O)O[C@@H]1[C@@H](C)[C@@]2(O)[C@@H](C=C(CO)C[C@]3(O)C(=O)C(C)=C[C@@H]23)[C@@H]2C(C)(C)[C@]12OC(C)=O [PMA, phorbol 12-myristate 13-acetate]
luciferase signal in treated left ear compared to ethanol-treated right ear (NF-κB [3]): specifically strong

dextran sulfate sodium salt [DSS]
luciferase signal in the large intestine region of the abdomen (NF-κB [4]): strongly expressed
